Laboratory results published in US8952024B2, “Herbicidal pyrimidone derivatives” (E I du Pont de Nemours and Company, priority 2009, dated 2015).

Key:
Format in all cases: in vivo
[1] = system: barnyardgrass (Echinochloa crus-galli); test: Test B flooded paddy test; details: for Plant response rating, Flood, Barnyardgrass: 250 g ai/ha, flooded paddy test, visual rating on 0 to 100 scale (0 no effect, 100 complete control) after 13 to 15 days; for Plant response rating, Barnyardgrass: Flood (flooded paddy test), 13 to 15 days; for Barnyardgrass plant response rating: Flood, 31 g ai/ha, scale 0 to 100 (0 no effect, 100 complete control)
How it was run: (§1)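 Greenhouse-held for 13 to 15 days, treated pots were compared visually with controls and scored 0–100 (0, no effect). Treatment had been made into paddy water kept at 3 cm above the soil, with plants at the 2-leaf stage.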

[2] = system: umbrella sedge (Cyperus difformis); test: Test B flooded paddy test; details: for Plant response rating, Flood, Sedge, Umbrella: 250 g ai/ha, flooded paddy test, visual rating on 0 to 100 scale (0 no effect, 100 complete control) after 13 to 15 days; for Plant response rating, Sedge, Umbrella: Flood (flooded paddy test), 13 to 15 days; for Sedge, Umbrella plant response rating: Flood, 31 g ai/ha, scale 0 to 100 (0 no effect, 100 complete control)
How it was run: as §1

[3] = system: rice (Oryza sativa); test: Test B flooded paddy test; details: for Plant response rating, Flood, Rice: 250 g ai/ha, flooded paddy test, visual rating on 0 to 100 scale (0 no effect, 100 complete control) after 13 to 15 days; for Plant response rating, Rice: Flood (flooded paddy test), 13 to 15 days; for Rice plant response rating: Flood, 31 g ai/ha, scale 0 to 100 (0 no effect, 100 complete control)
How it was run: as §1

[4] = system: ducksalad (Heteranthera limosa); test: Test B flooded paddy test; details: for Plant response rating, Flood, Ducksalad: 250 g ai/ha, flooded paddy test, visual rating on 0 to 100 scale (0 no effect, 100 complete control) after 13 to 15 days; for Plant response rating, Ducksalad: Flood (flooded paddy test), 13 to 15 days; for Ducksalad plant response rating: Flood, 31 g ai/ha, scale 0 to 100 (0 no effect, 100 complete control)
How it was run: as §1

[5] = system: barnyardgrass (Echinochloa crus-galli); test: Test A pre-/postemergence plant response
Description: (§2) Seeds of barnyardgrass (Echinochloa crus-galli), large crabgrass (Digitaria sanguinalis), giant foxtail (Setaria faberii), morningglory (Ipomoea spp.), pigweed (Amaranthus retroflexus), velvetleaf (Abutilon theophrasti), wheat (Triticum aestivum) and corn (Zea mays) were planted into a blend of loam soil and sand and treated preemergence with a directed soil spray using test chemicals formulated in a non-phytotoxic solvent mixture which included a surfactant. At the same time these species were also treated with postemergence applications of test compounds formulated in the same manner.
(§3) Plants ranged in height from two to ten cm and were in the one- to two-leaf stage for the postemergence treatment. Treated plants and untreated controls were maintained in a greenhouse for approximately ten days, after which time all treated plants were compared to untreated controls and visually evaluated for injury. Plant response ratings, summarized in Table A, are based on a 0 to 100 scale where 0 is no effect and 100 is complete control. A dash (-) response means no test result.

[6] = system: wheat (Triticum aestivum); test: Test A pre-/postemergence plant response
Description: as §2, §3

[7] = system: morningglory (Ipomoea spp.); test: Test A pre-/postemergence plant response
Description: as §2, §3

[8] = system: large crabgrass (Digitaria sanguinalis); test: Test A pre-/postemergence plant response
Description: as §2, §3

[9] = system: corn (Zea mays); test: Test A pre-/postemergence plant response
Description: as §2, §3

[10] = system: velvetleaf (Abutilon theophrasti); test: Test A pre-/postemergence plant response
Description: as §2, §3

[11] = system: giant foxtail (Setaria faberii); test: Test A pre-/postemergence plant response
Description: as §2, §3

[12] = system: pigweed (Amaranthus retroflexus); test: Test A pre-/postemergence plant response
Description: as §2, §3

[13] = 62 g ai/ha, scale of 0 to 100 where 0 is no effect and 100 is complete control
[14] = 125 g ai/ha, scale 0 to 100, 0 is no effect, 100 is complete control
[15] = Postemergence, 125 g ai/ha, 0 to 100 scale where 0 is no effect and 100 is complete control
[16] = Postemergence, 500 g ai/ha, visual injury, 0 to 100 scale (0 no effect, 100 complete control), approx. ten days
[17] = Preemergence, 125 g ai/ha, 0 to 100 scale, 0 = no effect, 100 = complete control
[18] = Preemergence, 500 g ai/ha, 0 to 100 scale, 0 = no effect, 100 = complete control
[19] = Postemergence, 500 g ai/ha, 0 to 100 scale, 0 = no effect, 100 = complete control, approx. ten days
[20] = Preemergence, 500 g ai/ha, visual injury, 0 to 100 scale (0 no effect, 100 complete control), approx. ten days

O=C1CCCC(O)=C1C(=O)c1cnc(-c2cccc(F)c2)n(-c2ccccc2)c1=O [Compound 199]
Plant response rating, Flood, Barnyardgrass [1]: 25 | Plant response rating, Barnyardgrass [1, 13]: 0 | Plant response rating, Barnyardgrass [1, 14]: 15 | Barnyardgrass plant response rating [1]: 0 | Plant response rating, Flood, Sedge, Umbrella [2]: 85 | Plant response rating, Sedge, Umbrella [2, 13]: 70 | Plant response rating, Sedge, Umbrella [2, 14]: 75 | Sedge, Umbrella plant response rating [2]: 60 | Plant response rating, Flood, Rice [3]: 0 | Plant response rating, Rice [3, 13]: 0 | Plant response rating, Rice [3, 14]: 0 | Rice plant response rating [3]: 0 | Plant response rating, Flood, Ducksalad [4]: 90 | Plant response rating, Ducksalad [4, 13]: 85 | Plant response rating, Ducksalad [4, 14]: 85 | Ducksalad plant response rating [4]: 85 | Plant response rating, Barnyardgrass [5, 15]: 90 | Barnyardgrass plant response rating [5, 16]: 100 | Plant response rating, Barnyardgrass [5, 17]: 20 | Plant response rating, Barnyardgrass [5, 18]: 90 | Plant response rating, Wheat [6, 15]: 0 | Wheat plant response rating [6, 16]: 10 | Plant response rating, Wheat [6, 17]: 0 | Plant response rating, Wheat [6, 18]: 20 | Plant response rating, Morningglory [7, 15]: 100 | Morningglory plant response rating [7, 16]: 100 | Plant response rating, Morningglory [7, 17]: 70 | Plant response rating, Morningglory [7, 18]: 80 | Plant response rating, Crabgrass, Large [8, 15]: 70 | Crabgrass, Large plant response rating [8, 16]: 100 | Plant response rating, Crabgrass, Large [8, 17]: 60 | Plant response rating, Crabgrass, Large [8, 18]: 100 | Plant response rating, Corn [9, 15]: 0 | Corn plant response rating [9, 16]: 50 | Plant response rating, Corn [9, 17]: 20 | Plant response rating, Corn [9, 18]: 30 | Plant response rating, Velvetleaf [10, 15]: 100 | Velvetleaf plant response rating [10, 16]: 100 | Plant response rating, Velvetleaf [10, 17]: 90 | Plant response rating, Velvetleaf [10, 18]: 100 | Plant response rating, Foxtail, Giant [11, 15]: 100 | Foxtail, Giant plant response rating [11, 16]: 100 | Plant response rating, Foxtail, Giant [11, 17]: 60 | Plant response rating, Foxtail, Giant [11, 18]: 90 | Plant response rating, Pigweed [12, 15]: 100 | Pigweed plant response rating [12, 16]: 100 | Plant response rating, Pigweed [12, 17]: 80 | Plant response rating, Pigweed [12, 18]: 100

CCCc1ncc(C(=O)C2=C(O)CCCC2=O)c(=O)n1Cc1ccc(OC)c(OC)c1 [Compound 84]
Plant response rating, Flood, Barnyardgrass [1]: 0 | Plant response rating, Barnyardgrass [1, 13]: 0 | Plant response rating, Barnyardgrass [1, 14]: 0 | Barnyardgrass plant response rating [1]: 0 | Plant response rating, Flood, Sedge, Umbrella [2]: 50 | Plant response rating, Sedge, Umbrella [2, 13]: 0 | Plant response rating, Sedge, Umbrella [2, 14]: 30 | Sedge, Umbrella plant response rating [2]: 0 | Plant response rating, Flood, Rice [3]: 0 | Plant response rating, Rice [3, 13]: 0 | Plant response rating, Rice [3, 14]: 0 | Rice plant response rating [3]: 0 | Plant response rating, Flood, Ducksalad [4]: 20 | Plant response rating, Ducksalad [4, 13]: 0 | Plant response rating, Ducksalad [4, 14]: 0 | Ducksalad plant response rating [4]: 0 | Plant response rating, Barnyardgrass [5, 15]: 0 | Plant response rating, Barnyardgrass [5, 19]: 10 | Plant response rating, Barnyardgrass [5, 17]: 0 | Plant response rating, Barnyardgrass [5, 20]: 0 | Plant response rating, Wheat [6, 15]: 0 | Plant response rating, Wheat [6, 19]: 0 | Plant response rating, Wheat [6, 17]: 0 | Plant response rating, Wheat [6, 20]: 0 | Plant response rating, Morningglory [7, 15]: 90 | Plant response rating, Morningglory [7, 19]: 90 | Plant response rating, Morningglory [7, 17]: 0 | Plant response rating, Morningglory [7, 20]: 10 | Plant response rating, Crabgrass, Large [8, 15]: 0 | Plant response rating, Crabgrass, Large [8, 19]: 10 | Plant response rating, Crabgrass, Large [8, 17]: 0 | Plant response rating, Crabgrass, Large [8, 20]: 0 | Plant response rating, Corn [9, 15]: 0 | Plant response rating, Corn [9, 19]: 20 | Plant response rating, Corn [9, 17]: 0 | Plant response rating, Corn [9, 20]: 0 | Plant response rating, Velvetleaf [10, 15]: 70 | Plant response rating, Velvetleaf [10, 19]: 100 | Plant response rating, Velvetleaf [10, 17]: 0 | Plant response rating, Velvetleaf [10, 20]: 40 | Plant response rating, Foxtail, Giant [11, 15]: 0 | Plant response rating, Foxtail, Giant [11, 19]: 0 | Plant response rating, Foxtail, Giant [11, 17]: 0 | Plant response rating, Foxtail, Giant [11, 20]: 0 | Plant response rating, Pigweed [12, 15]: 100 | Plant response rating, Pigweed [12, 19]: 100 | Plant response rating, Pigweed [12, 17]: 90 | Plant response rating, Pigweed [12, 20]: 100
